In patent US9410182B2, “Phosphatase coupled glycosyltransferase assay” (Bio-Techne Corporation, priority 2010, dated 2016):

Experiments:
Assay type in all cases: biochemical
ST6Gal 1 = target: T1, ST6Gal 1 (Homo sapiens, UniProt P15907); experiment: Sialyltransferase activity of ST6Gal 1 assayed with CD73; settings: for specific activity of ST6Gal 1 against acceptor: 1 mM lactosamine or 4 mM lactose as acceptor, 1 mM CMP-NeuAc, 0.1 μg CD73
T1 construct: purchased R&D Systems
T1 sequence (P15907 1-406): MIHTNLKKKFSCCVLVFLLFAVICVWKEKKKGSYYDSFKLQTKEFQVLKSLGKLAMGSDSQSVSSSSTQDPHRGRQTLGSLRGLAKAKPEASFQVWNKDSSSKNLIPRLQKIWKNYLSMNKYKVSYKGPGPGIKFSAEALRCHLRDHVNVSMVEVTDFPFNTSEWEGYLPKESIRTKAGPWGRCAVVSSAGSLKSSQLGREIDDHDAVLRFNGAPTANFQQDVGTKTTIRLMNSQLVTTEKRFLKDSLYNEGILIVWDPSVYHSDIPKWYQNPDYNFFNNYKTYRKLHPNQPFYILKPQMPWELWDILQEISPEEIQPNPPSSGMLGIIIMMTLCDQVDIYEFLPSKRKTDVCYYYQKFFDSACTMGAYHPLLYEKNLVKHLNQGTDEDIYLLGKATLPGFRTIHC
Description: (§1) The GDP-Fucose, UDP-Glucose, CMP-NeuAc, CMP, UDP and GDP used in the following experiments were obtained from Sigma-Aldrich (St Louis, Mo.). The recombinant human Fut7, ST6Gal1, CD73, CD39L3, non-specific alkaline phosphatase TNAP, recombinant Clostridium Difficile toxin B (TcdB) containing the glycosyltransferase domain and Malachite Green Phosphate Detection Kit were obtained from R&D Systems (Minneapolis, Minn.). The 3′-Sialyl-N-acetyllactosamine was obtained from V-LABS, Inc (Convington, La.). Unless otherwise specified, each glycosyltransferase reaction was performed in 50 μL of a buffer of 25 mM Tris, 150 mM NaCl, 5 mM MgCl2 and 5 mM MnCl2, at pH 7.5 in a 96-well plate at room temperature for 20 minutes. To determine kinetic parameters of each glycosyltransferase, multiple reactions with varied amounts of either glycosyltransferase or substrates were preceded simultaneously in the presence of fixed amounts of all other components, including a phosphatase. A well containing all components except glycosyltransferase served as a blank control for each example. The reactions were stopped by adding 30 μL of Malachite Reagent A and 100 μL of water to each well. The color was developed by adding 30 μL of Malachite Reagent B to each well followed by gently tapping on the edge and incubation for 30 minutes. The plate was then read at 620 nm with a multi-well plate reader.
Sialic acid is negatively charged under normal pH conditions, making sialyltransferases more difficult to assay than other glycosyltransferases. Because both the donor and product are likely negatively charged, separating them by common ion exchange chromatography separation is challenging. In this experiment, ST6Gal 1, a sialyltransferase, was assayed using 0.1 μg CD73 in a 96-well plate. First, enzyme curves were obtained with either 1 mM lactosamine or 4 mM lactose as the acceptor in the presence of 1 mM CMP-NeuAc. The results are shown in FIG. 7, and the specific activities against lactosamine and lactose were determined to be 458 and 41 pmol/min/μg respectively, confirming that the enzyme strongly favors lactosamine structure. The apparent Km and Vmax were determined for one substrate while fixing the other by fitting the data to KaleidaGraph 4 program.

CD73 = target: T2, CD73 (Homo sapiens, UniProt P21589); experiment: Phosphate release from CMP by CD73, malachite green detection; settings: 0.1 μg CD73, up to 10 nmol nucleotide, 15 minutes, room temperature
T2 construct: purchased R&D Systems
T2 sequence (P21589 27-549): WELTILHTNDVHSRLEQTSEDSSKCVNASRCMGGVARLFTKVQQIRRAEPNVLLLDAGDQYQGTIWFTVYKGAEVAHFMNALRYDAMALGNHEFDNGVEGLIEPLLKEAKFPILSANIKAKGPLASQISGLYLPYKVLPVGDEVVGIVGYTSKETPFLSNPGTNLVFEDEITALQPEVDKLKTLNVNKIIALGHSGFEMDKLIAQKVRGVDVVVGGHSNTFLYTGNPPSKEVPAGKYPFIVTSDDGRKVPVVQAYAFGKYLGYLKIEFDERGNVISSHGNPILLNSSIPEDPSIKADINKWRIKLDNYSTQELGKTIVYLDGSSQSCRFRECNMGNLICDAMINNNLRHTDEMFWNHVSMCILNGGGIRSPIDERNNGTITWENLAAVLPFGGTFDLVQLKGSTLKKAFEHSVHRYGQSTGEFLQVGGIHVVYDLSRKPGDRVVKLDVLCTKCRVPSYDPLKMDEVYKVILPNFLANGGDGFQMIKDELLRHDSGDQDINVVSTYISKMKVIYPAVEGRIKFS
Description: as §1, with “The reactions were stopped by adding 30 μL of Malachite Reagent A and 100 μL of water to each well. The color was developed by adding 30 μL of Malachite Reagent B to each well followed by gently tapping on the edge and incubation for 30 minutes.” left out
(§2) UDP, GDP and CMP are common donors in glycosyltransferase reactions. […] In FIG. 4C, it can be seen that TNAP, at 0.1 μg level, could only quantitatively release phosphate up to 2 nmol of nucleotide input. […]

CD39L3 = target: T3, CD39L3 (Homo sapiens, UniProt O75355); experiment: Phosphate release from UDP and GDP by CD39L3, malachite green detection; settings: 0.1 μg CD39L3, up to 10 nmol nucleotide, 15 minutes, room temperature
T3 construct: purchased R&D Systems
T3 sequence (O75355 1-529): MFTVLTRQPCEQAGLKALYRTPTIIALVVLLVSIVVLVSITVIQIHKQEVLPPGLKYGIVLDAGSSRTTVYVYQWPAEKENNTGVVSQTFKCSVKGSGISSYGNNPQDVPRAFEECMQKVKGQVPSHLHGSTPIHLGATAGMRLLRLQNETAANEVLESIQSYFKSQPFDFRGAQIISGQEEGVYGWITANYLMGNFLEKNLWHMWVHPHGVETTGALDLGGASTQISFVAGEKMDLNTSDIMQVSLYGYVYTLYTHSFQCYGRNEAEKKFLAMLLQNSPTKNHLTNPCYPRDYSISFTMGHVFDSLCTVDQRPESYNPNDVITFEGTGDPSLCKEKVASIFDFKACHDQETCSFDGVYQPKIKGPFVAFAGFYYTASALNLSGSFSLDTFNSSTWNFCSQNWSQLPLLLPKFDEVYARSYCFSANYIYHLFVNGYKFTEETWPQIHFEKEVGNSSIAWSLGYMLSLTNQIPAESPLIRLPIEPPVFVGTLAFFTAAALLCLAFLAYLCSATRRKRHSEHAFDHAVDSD
Description: as §1, with “The reactions were stopped by adding 30 μL of Malachite Reagent A and 100 μL of water to each well. The color was developed by adding 30 μL of Malachite Reagent B to each well followed by gently tapping on the edge and incubation for 30 minutes.” left out
as §2

TNAP = target: T4, TNAP (Homo sapiens, UniProt P05186); experiment: Phosphate release from UDP, GDP and CMP by TNAP, malachite green detection; settings: 1 μg TNAP, up to 10 nmol nucleotide
T4 construct: purchased R&D Systems
T4 sequence (P05186 18-501): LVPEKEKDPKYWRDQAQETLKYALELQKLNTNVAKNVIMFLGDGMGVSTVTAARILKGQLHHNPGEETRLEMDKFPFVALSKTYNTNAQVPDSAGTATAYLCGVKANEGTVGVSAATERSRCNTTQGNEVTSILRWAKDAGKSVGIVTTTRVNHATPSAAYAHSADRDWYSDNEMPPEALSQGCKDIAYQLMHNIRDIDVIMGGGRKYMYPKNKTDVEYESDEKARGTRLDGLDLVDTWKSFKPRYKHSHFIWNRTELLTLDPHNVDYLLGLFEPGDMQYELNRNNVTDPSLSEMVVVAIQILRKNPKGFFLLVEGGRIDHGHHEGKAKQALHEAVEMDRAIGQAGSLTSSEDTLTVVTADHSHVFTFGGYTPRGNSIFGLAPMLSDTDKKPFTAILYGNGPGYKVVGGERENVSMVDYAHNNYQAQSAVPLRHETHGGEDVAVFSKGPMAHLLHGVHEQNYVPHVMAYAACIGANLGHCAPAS
Description: as §1, with “The reactions were stopped by adding 30 μL of Malachite Reagent A and 100 μL of water to each well. The color was developed by adding 30 μL of Malachite Reagent B to each well followed by gently tapping on the edge and incubation for 30 minutes.” left out
as §2

phosphate released from nucleotide by CD39L3 (CD39L3) | phosphate released from nucleotide by TNAP (TNAP) | specific activity of ST6Gal 1 against acceptor (ST6Gal 1) [pmol/min/µg] | SMILES | other results
– | – | – | CC(=O)N[C@H]1[C@H]([C@H](O)[C@H](O)CO)O[C@](OP(=O)(O)OC[C@H]2O[C@@H](n3ccc(N)nc3=O)[C@H](O)[C@@H]2O)(C(=O)O)C[C@@H]1O [CMP-NeuAc, CMP-N-Acetylneuraminic acid] | apparent Vmax (ST6Gal 1; donor varied, lactosamine fixed at 1 mM): 710 ± 16 pmol/min/µg; Km (ST6Gal 1; donor varied, lactosamine fixed at 1 mM, read-out: apparent Km): 530 ± 40 µM
– | – | – | Nc1ccn([C@@H]2O[C@H](COP(=O)(O)O)[C@@H](O)[C@H]2O)c(=O)n1 [CMP] | dephosphorylation of nucleotide by CD73 (CD73): completely
one | about two | – | Nc1nc2c(ncn2[C@@H]2O[C@H](COP(=O)(O)OP(=O)(O)O)[C@@H](O)[C@H]2O)c(=O)[nH]1 [GDP] | –
one | about two | – | O=c1ccn([C@@H]2O[C@H](COP(=O)(O)OP(=O)(O)O)[C@@H](O)[C@H]2O)c(=O)[nH]1 [UDP] | –
– | – | 458 | N[C@H]1C(O)O[C@H](CO)[C@@H](O[C@@H]2O[C@H](CO)[C@H](O)[C@H](O)[C@H]2O)[C@@H]1O (stereo partly drawn) [lactosamine] | –
– | – | 41 | OC[C@H]1O[C@@H](O[C@H]2[C@H](O)[C@@H](O)C(O)O[C@@H]2CO)[C@H](O)[C@@H](O)[C@H]1O (stereo partly drawn) [lactose] | –
